Measurements published in ChEMBL document CHEMBL1158249, “Cytotoxic falcarinol oxylipins from Dendropanax arboreus” (J Nat Prod, 1996).
The source made the active and inactive calls. The calls are words filed in the database; no cut-off is given here.

How the values were obtained:
[1] = Cytotoxicity against human NCI60 cells; type: functional
[2] = tested on: Mus musculus; assay: Toxicity against human LOX cells xenografted athymic nude mouse assessed as median day of death at 3.0 mg/kg, ip administered daily for 5 days; type: organism-based; set-up: dose 3 mg/kg, route intraperitoneal; conditions: in vivo, 120 h
[3] = Antitumor activity against human LOX cells xenografted athymic nude mouse assessed as increase in life span at 0.26 mg/kg, ip administered daily for 5 days; type: functional; conditions: route intraperitoneal
[4] = tested on: LOX; assay: Antitumor activity against human LOX cells xenografted athymic nude mouse at 1.33 mg/kg, ip administered daily for 5 days; type: functional, organism-based; set-up: dose 1.33 mg/kg
[5] = tested on: Mus musculus; assay: Toxicity against human LOX cells xenografted athymic nude mouse assessed as median day of death at 0.39 mg/kg, ip administered daily for 5 days; type: organism-based; set-up: dose 0.39 mg/kg, route intraperitoneal; conditions: in vivo, 120 h
[6] = Antitumor activity against human LOX cells xenografted athymic nude mouse assessed as increase in life span at 1.33 mg/kg, ip administered daily for 5 days; type: functional; conditions: route intraperitoneal
[7] = tested on: Mus musculus; assay: Toxicity against human LOX cells xenografted athymic nude mouse assessed as median day of death at 2.0 mg/kg, ip administered daily for 5 days; type: organism-based; set-up: dose 2 mg/kg, route intraperitoneal; conditions: in vivo, 120 h
[8] = tested on: LOX; assay: Antitumor activity against human LOX cells xenografted athymic nude mouse at 0.26 mg/kg, ip administered daily for 5 days; type: functional, organism-based; set-up: dose 0.26 mg/kg
[9] = tested on: Mus musculus; assay: Toxicity against human LOX cells xenografted athymic nude mouse assessed as median day of death at 0.59 mg/kg, ip administered daily for 5 days; type: organism-based; set-up: dose 0.59 mg/kg, route intraperitoneal; conditions: in vivo, 120 h
[10] = tested on: Mus musculus; assay: Toxicity against human LOX cells xenografted athymic nude mouse assessed as median day of death at 0.26 mg/kg, ip administered daily for 5 days; type: organism-based; set-up: dose 0.26 mg/kg, route intraperitoneal; conditions: in vivo, 120 h
[11] = Antitumor activity against human LOX cells xenografted athymic nude mouse assessed as increase in life span at 2.0 mg/kg, ip administered daily for 5 days; type: functional; conditions: route intraperitoneal
[12] = tested on: LOX; assay: Antitumor activity against human LOX cells xenografted athymic nude mouse at 2.0 mg/kg, ip administered daily for 5 days; type: functional, organism-based; set-up: dose 2 mg/kg
[13] = tested on: LOX; assay: Antitumor activity against human LOX cells xenografted athymic nude mouse at 0.39 mg/kg, ip administered daily for 5 days; type: functional, organism-based; set-up: dose 0.39 mg/kg
[14] = tested on: LOX; assay: Antitumor activity against human LOX cells xenografted athymic nude mouse at 0.59 mg/kg, ip administered daily for 5 days; type: functional, organism-based; set-up: dose 0.59 mg/kg
[15] = tested on: LOX; assay: Antitumor activity against human LOX cells xenografted athymic nude mouse at 0.17 mg/kg, ip administered daily for 5 days; type: functional, organism-based; set-up: dose 0.17 mg/kg
[16] = tested on: LOX; assay: Antitumor activity against human LOX cells xenografted athymic nude mouse at 0.88 mg/kg, ip administered daily for 5 days; type: functional, organism-based; set-up: dose 0.88 mg/kg
[17] = tested on: Mus musculus; assay: Toxicity against human LOX cells xenografted athymic nude mouse assessed as median day of death at 0.17 mg/kg, ip administered daily for 5 days; type: organism-based; set-up: dose 0.17 mg/kg, route intraperitoneal; conditions: in vivo, 120 h
[18] = Antitumor activity against human LOX cells xenografted athymic nude mouse assessed as increase in life span at 0.59 mg/kg, ip administered daily for 5 days; type: functional; conditions: route intraperitoneal
[19] = Antitumor activity against human LOX cells xenografted athymic nude mouse assessed as increase in life span at 0.88 mg/kg, ip administered daily for 5 days; type: functional; conditions: route intraperitoneal
[20] = Antitumor activity against human LOX cells xenografted athymic nude mouse assessed as increase in life span at 3.0 mg/kg, ip administered daily for 5 days; type: functional; conditions: route intraperitoneal
[21] = tested on: Mus musculus; assay: Toxicity against human LOX cells xenografted athymic nude mouse assessed as median day of death at 0.88 mg/kg, ip administered daily for 5 days; type: organism-based; set-up: dose 0.88 mg/kg, route intraperitoneal; conditions: in vivo, 120 h
[22] = tested on: LOX; assay: Antitumor activity against human LOX cells xenografted athymic nude mouse at 3.0 mg/kg, ip administered daily for 5 days; type: functional, organism-based; set-up: dose 3 mg/kg
[23] = tested on: Mus musculus; assay: Toxicity against human LOX cells xenografted athymic nude mouse assessed as median day of death at 1.33 mg/kg, ip administered daily for 5 days; type: organism-based; set-up: dose 1.33 mg/kg, route intraperitoneal; conditions: in vivo, 120 h
[24] = tested on: LOX; assay: Antitumor activity against human LOX cells xenografted athymic nude mouse at 6.0 mg/kg, ip administered daily for 5 days; type: functional, organism-based; set-up: dose 6 mg/kg
[25] = tested on: Mus musculus; assay: Toxicity against human LOX cells xenografted athymic nude mouse assessed as median day of death at 6.0 mg/kg, ip administered daily for 5 days; type: organism-based; set-up: dose 6 mg/kg, route intraperitoneal; conditions: in vivo, 120 h
[26] = tested on: Mus musculus; assay: Toxicity against human LOX cells xenografted athymic nude mouse assessed as median day of death at 14.06 mg/kg, ip administered daily for 5 days; type: organism-based; set-up: dose 14.06 mg/kg, route intraperitoneal; conditions: in vivo, 120 h
[27] = tested on: LOX; assay: Antitumor activity against human LOX cells xenografted athymic nude mouse at 56.25 mg/kg, ip administered daily for 5 days; type: functional, organism-based; set-up: dose 56.25 mg/kg
[28] = tested on: LOX; assay: Antitumor activity against human LOX cells xenografted athymic nude mouse at 1.76 mg/kg, ip administered daily for 5 days; type: functional, organism-based; set-up: dose 1.76 mg/kg
[29] = tested on: Mus musculus; assay: Toxicity against human LOX cells xenografted athymic nude mouse assessed as median day of death at 112.5 mg/kg, ip administered daily for 5 days; type: organism-based; set-up: dose 112.5 mg/kg, route intraperitoneal; conditions: in vivo, 120 h
[30] = tested on: LOX; assay: Antitumor activity against human LOX cells xenografted athymic nude mouse at 3.51 mg/kg, ip administered daily for 5 days; type: functional, organism-based; set-up: dose 3.51 mg/kg
[31] = tested on: Mus musculus; assay: Toxicity against human LOX cells xenografted athymic nude mouse assessed as median day of death at 1.76 mg/kg, ip administered daily for 5 days; type: organism-based; set-up: dose 1.76 mg/kg, route intraperitoneal; conditions: in vivo, 120 h
[32] = Antitumor activity against human LOX cells xenografted athymic nude mouse assessed as increase in life span at 0.17 mg/kg, ip administered daily for 5 days; type: functional; conditions: route intraperitoneal
[33] = tested on: Mus musculus; assay: Toxicity against human LOX cells xenografted athymic nude mouse assessed as median day of death at 7.03 mg/kg, ip administered daily for 5 days; type: organism-based; set-up: dose 7.03 mg/kg, route intraperitoneal; conditions: in vivo, 120 h
[34] = tested on: LOX; assay: Antitumor activity against human LOX cells xenografted athymic nude mouse at 14.06 mg/kg, ip administered daily for 5 days; type: functional, organism-based; set-up: dose 14.06 mg/kg
[35] = tested on: Mus musculus; assay: Toxicity against human LOX cells xenografted athymic nude mouse assessed as median day of death at 28.12 mg/kg, ip administered daily for 5 days; type: organism-based; set-up: dose 28.12 mg/kg, route intraperitoneal; conditions: in vivo, 120 h
[36] = tested on: LOX; assay: Antitumor activity against human LOX cells xenografted athymic nude mouse at 7.03 mg/kg, ip administered daily for 5 days; type: functional, organism-based; set-up: dose 7.03 mg/kg
[37] = tested on: Mus musculus; assay: Toxicity against human LOX cells xenografted athymic nude mouse assessed as median day of death at 56.25 mg/kg, ip administered daily for 5 days; type: organism-based; set-up: dose 56.25 mg/kg, route intraperitoneal; conditions: in vivo, 120 h
[38] = tested on: Mus musculus; assay: Toxicity against human LOX cells xenografted athymic nude mouse assessed as median day of death at 3.51 mg/kg, ip administered daily for 5 days; type: organism-based; set-up: dose 3.51 mg/kg, route intraperitoneal; conditions: in vivo, 120 h
[39] = tested on: LOX; assay: Antitumor activity against human LOX cells xenografted athymic nude mouse at 225 mg/kg, ip administered daily for 5 days; type: functional, organism-based; set-up: dose 225 mg/kg
[40] = Antitumor activity against human LOX cells xenografted athymic nude mouse assessed as increase in life span at 1.76 mg/kg, ip administered daily for 5 days; type: functional; conditions: route intraperitoneal
[41] = tested on: Mus musculus; assay: Toxicity against human LOX cells xenografted athymic nude mouse assessed as median day of death at 225 mg/kg, ip administered daily for 5 days; type: organism-based; set-up: dose 225 mg/kg, route intraperitoneal; conditions: in vivo, 120 h
[42] = tested on: LOX; assay: Antitumor activity against human LOX cells xenografted athymic nude mouse at 112.5 mg/kg, ip administered daily for 5 days; type: functional, organism-based; set-up: dose 112.5 mg/kg
[43] = tested on: LOX; assay: Antitumor activity against human LOX cells xenografted athymic nude mouse at 28.12 mg/kg, ip administered daily for 5 days; type: functional, organism-based; set-up: dose 28.12 mg/kg

SMILES: C=C[C@@H](O)C#CC#C[C@@H](O)/C=C\CCCCCCC [FALCARINDIOL]
- GI50 [1]: 660 nM
- TGI [1]: 2200 nM

SMILES: C=CCCCCC/C=C\CC#CC#C[C@@H](O)C=C
- Activity [2]: 18 days
- Activity [3]: 20%
- GI50 [1]: 400 nM
- LC50 [1]: 4800 nM
- TGI [1]: 1300 nM
- Activity [4]: inactive
- Activity [5]: 15 days
- Activity [6]: 20%
- Activity [7]: 16 days
- Activity [8]: inactive
- Activity [9]: 15 days
- Activity [10]: 18 days
- Activity [11]: 27%
- Activity [12]: inactive
- Activity [13]: inactive
- Activity [14]: inactive
- Activity [15]: inactive
- Activity [16]: inactive
- Activity [17]: 15 days
- Activity [18]: 20%
- Activity [19]: 13%
- Activity [20]: 47%
- Activity [21]: 15 days
- Activity [22]: inactive
- Activity [23]: 15 days

SMILES: C=CCCCCC/C=C\[C@H](O)C#CC#C[C@@H](O)C=C
- Activity [2]: 14.5 days
- GI50 [1]: 2100 nM
- LC50 [1]: 10000 nM
- TGI [1]: 3000 nM
- Activity [4]: inactive
- Activity [5]: 14.5 days
- Activity [6]: 3%
- Activity [7]: 14 days
- Activity [8]: inactive
- Activity [9]: 15 days
- Activity [10]: 15 days
- Activity [12]: inactive
- Activity [24]: inactive
- Activity [13]: inactive
- Activity [14]: inactive
- Activity [16]: inactive
- Activity [21]: 14 days
- Activity [22]: inactive
- Activity [23]: 15.5 days
- Activity [25]: 15 days

SMILES: C=C[C@H](O)C#CC#CC/C=C\CCCCCCC [FALCARINOL]
- Activity [26]: 4.5 days
- Activity [2]: 20 days
- Activity [27]: Active
- GI50 [1]: 220 nM
- LC50 [1]: 3800 nM
- TGI [1]: 760 nM
- Activity [4]: inactive
- Activity [5]: 19 days
- Activity [28]: inactive
- Activity [29]: 3 days
- Activity [30]: Active
- Activity [7]: 19.5 days
- Activity [9]: 22.5 days
- Activity [31]: 22 days
- Activity [32]: 5%
- Activity [11]: 7%
- Activity [33]: 5.5 days
- Activity [12]: inactive
- Activity [34]: Active
- Activity [35]: 4 days
- Activity [36]: Active
- Activity [13]: inactive
- Activity [37]: 3 days
- Activity [14]: inactive
- Activity [15]: inactive
- Activity [16]: inactive
- Activity [17]: 21 days
- Activity [18]: 13%
- Activity [38]: 6.5 days
- Activity [19]: 5%
- Activity [39]: Active
- Activity [20]: 13%
- Activity [21]: 22 days
- Activity [40]: 5%
- Activity [22]: inactive
- Activity [41]: 2 days
- Activity [42]: Active
- Activity [23]: 20 days
- Activity [43]: Active

SMILES: C=CCCCCCC(O)/C=C/C#CC#C[C@@H](O)C=C (stereo not given in full) [DENDROARBOREOL B]
- GI50 [1]: 500 nM
- LC50 [1]: 7600 nM
- TGI [1]: 1900 nM

SMILES: C=CCCCCC/C=C\[C@H](O)C#CC#C[C@@H](O)CC [DENDROARBOREOL A]
- GI50 [1]: 4600 nM
- LC50 [1]: 25000 nM
- TGI [1]: 14000 nM

SMILES: C=C[C@H](O)C#CC#C/C=C/C(O)CCCCCCC (stereo not given in full)
- GI50 [1]: 440 nM
- LC50 [1]: 4700 nM
- TGI [1]: 1400 nM
